From ChEMBL document CHEMBL3046007, “Isonicotinic acid hydrazide derivatives: synthesis, antimicrobial activity, and QSAR studies” (Med Chem Res, 2012)
In brackets after ≈: the same amount, converted by molar mass.

System: Vesicular stomatitis virus
Experiment: Antiviral activity against Vesicular stomatitis virus infected human HeLa cells assessed as inhibition of virus-induced cytopathicity
Assay type: functional, organism-based
Conditions: not given
For `CCOc1cc(/C=N/NC(=O)c2ccncc2)ccc1O`, the EC50 was > 100 µg/mL.
For `COc1cccc(OC)c1/C=N/NC(=O)c1ccncc1`, the EC50 was > 20 µg/mL.

System: Sindbis virus
Experiment: Antiviral activity against Sindbis virus infected Vero cells assessed as inhibition of virus-induced cytopathicity
Assay type: functional, organism-based
Conditions: not given
For `CCOc1cc(/C=N/NC(=O)c2ccncc2)ccc1O`, the EC50 was > 100 µg/mL.
With `COc1cccc(OC)c1/C=N/NC(=O)c1ccncc1` the EC50 was > 20 µg/mL.

System: not listed separately
Experiment: Cytotoxicity against Homo sapiens (human) MT4 cells
Assay type: cell-based
Conditions: not given
For `CCOc1cc(/C=N/NC(=O)c2ccncc2)ccc1O`, the CC50 was 102 µg/mL (≈ 358 µM).
`COc1cccc(OC)c1/C=N/NC(=O)c1ccncc1` gave a CC50 of 9 µg/mL (≈ 31.5 µM).

System: not listed separately
Experiment: Cytotoxicity against Homo sapiens (human) HeLa cells
Assay type: cell-based
Conditions: not given
In the case of `CCOc1cc(/C=N/NC(=O)c2ccncc2)ccc1O`, the MCC is reported as > 100 µg/mL.
In the case of `COc1cccc(OC)c1/C=N/NC(=O)c1ccncc1`, the MCC is reported as 100 µg/mL.

System: Coxsackievirus B4
Experiment: Antiviral activity against Human coxsackievirus B4 infected Vero cells assessed as inhibition of virus-induced cytopathicity
Assay type: functional, organism-based
Conditions: Enterovirus B
In the case of `CCOc1cc(/C=N/NC(=O)c2ccncc2)ccc1O`, the EC50 is reported as > 100 µg/mL.
With `COc1cccc(OC)c1/C=N/NC(=O)c1ccncc1` the EC50 was > 20 µg/mL.

System: not listed separately
Experiment: Cytotoxicity against Homo sapiens (human) HEL cells
Assay type: cell-based
Conditions: not given
In the case of `CCOc1cc(/C=N/NC(=O)c2ccncc2)ccc1O`, the MCC is reported as > 100 µg/mL.
In the case of `COc1cccc(OC)c1/C=N/NC(=O)c1ccncc1`, the MCC is reported as > 100 µg/mL.

System: Candida albicans
Experiment: Antimicrobial activity against Candida albicans after 48 hr by serial dilution method
Assay type: functional
Conditions: not given
For `CCOc1cc(/C=N/NC(=O)c2ccncc2)ccc1O`, the “-logMIC” value was 2.36.
For `COc1cccc(OC)c1/C=N/NC(=O)c1ccncc1`, the “-logMIC” value was 2.36.

System: Escherichia coli
Experiment: Antimicrobial activity against Escherichia coli after 24 hr by serial dilution method
Assay type: functional
Conditions: not given
In the case of `CCOc1cc(/C=N/NC(=O)c2ccncc2)ccc1O`, the “-logMIC” value is reported as 2.36.
In the case of `COc1cccc(OC)c1/C=N/NC(=O)c1ccncc1`, the “-logMIC” value is reported as 2.06.

System: Human alphaherpesvirus 1
Experiment: Antiviral activity against TK(-) aciclovir-resistant Human herpesvirus 1 strain KOS infected in human HEL cells assessed as inhibition of virus-induced cytopathicity
Assay type: functional, organism-based
Conditions: Human alphaherpesvirus 1, KOS
In the case of `CCOc1cc(/C=N/NC(=O)c2ccncc2)ccc1O`, the EC50 is reported as > 100 µg/mL.
With `COc1cccc(OC)c1/C=N/NC(=O)c1ccncc1` the EC50 was > 100 µg/mL.

System: Coxsackievirus B4
Experiment: Antiviral activity against Human coxsackievirus B4 infected human HeLa cells assessed as inhibition of virus-induced cytopathicity
Assay type: functional, organism-based
Conditions: Enterovirus B
With `CCOc1cc(/C=N/NC(=O)c2ccncc2)ccc1O` the EC50 was > 100 µg/mL.
With `COc1cccc(OC)c1/C=N/NC(=O)c1ccncc1` the EC50 was > 20 µg/mL.

System: Bacillus subtilis
Experiment: Antimicrobial activity against Bacillus subtilis after 24 hr by serial dilution method
Assay type: functional
Conditions: not given
In the case of `CCOc1cc(/C=N/NC(=O)c2ccncc2)ccc1O`, the “-logMIC” value is reported as 2.06.
With `COc1cccc(OC)c1/C=N/NC(=O)c1ccncc1` the “-logMIC” value was 2.06.

System: Human respirovirus 3
Experiment: Antiviral activity against Human parainfluenza virus 3 infected Vero cells assessed as inhibition of virus-induced cytopathicity
Assay type: functional, organism-based
Conditions: Human respirovirus 3, Vero
In the case of `CCOc1cc(/C=N/NC(=O)c2ccncc2)ccc1O`, the EC50 is reported as > 100 µg/mL.
In the case of `COc1cccc(OC)c1/C=N/NC(=O)c1ccncc1`, the EC50 is reported as > 20 µg/mL.

System: Human immunodeficiency virus 1
Experiment: Antiviral activity against Human immunodeficiency virus 1 IIIB infected human MT4 cells assessed as inhibition of virus-induced cytopathicity
Assay type: functional, organism-based
Conditions: not given
For `CCOc1cc(/C=N/NC(=O)c2ccncc2)ccc1O`, the EC50 was > 102 µg/mL.
With `COc1cccc(OC)c1/C=N/NC(=O)c1ccncc1` the EC50 was > 9 µg/mL.

System: Aspergillus niger
Experiment: Antimicrobial activity against Aspergillus niger after 7 days by serial dilution method
Assay type: functional
Conditions: not given
In the case of `CCOc1cc(/C=N/NC(=O)c2ccncc2)ccc1O`, the “-logMIC” value is reported as 2.36.
For `COc1cccc(OC)c1/C=N/NC(=O)c1ccncc1`, the “-logMIC” value was 2.36.

System: Human immunodeficiency virus 2
Experiment: Antiviral activity against Human immunodeficiency virus type 2 (ISOLATE ROD) infected human MT4 cells assessed as inhibition of virus-induced cytopathicity
Assay type: functional, organism-based
Conditions: Human immunodeficiency virus 2, ISOLATE ROD
With `CCOc1cc(/C=N/NC(=O)c2ccncc2)ccc1O` the EC50 was > 102 µg/mL.
With `COc1cccc(OC)c1/C=N/NC(=O)c1ccncc1` the EC50 was > 9 µg/mL.

System: not listed separately
Experiment: Cytotoxicity against Chlorocebus aethiops (African green monkey) Vero cells assessed as alteration in cell morphology
Assay type: cell-based
Conditions: chlorocebus sabaeus
In the case of `CCOc1cc(/C=N/NC(=O)c2ccncc2)ccc1O`, the MCC is reported as > 100 µg/mL.
In the case of `COc1cccc(OC)c1/C=N/NC(=O)c1ccncc1`, the MCC is reported as 100 µg/mL.

System: Human alphaherpesvirus 2
Experiment: Antiviral activity against Human herpesvirus 2 strain G infected human HEL cells assessed as inhibition of virus-induced cytopathicity
Assay type: functional, organism-based
Conditions: Human alphaherpesvirus 2, strain G
With `CCOc1cc(/C=N/NC(=O)c2ccncc2)ccc1O` the EC50 was > 100 µg/mL.
With `COc1cccc(OC)c1/C=N/NC(=O)c1ccncc1` the EC50 was > 100 µg/mL.

System: Punta Toro virus
Experiment: Antiviral activity against Punta Toro virus infected Vero cells assessed as inhibition of virus-induced cytopathicity
Assay type: functional, organism-based
Conditions: not given
In the case of `CCOc1cc(/C=N/NC(=O)c2ccncc2)ccc1O`, the EC50 is reported as > 100 µg/mL.
In the case of `COc1cccc(OC)c1/C=N/NC(=O)c1ccncc1`, the EC50 is reported as > 20 µg/mL.

System: Staphylococcus aureus
Experiment: Antimicrobial activity against Staphylococcus aureus after 24 hr by serial dilution method
Assay type: functional
Conditions: not given
In the case of `CCOc1cc(/C=N/NC(=O)c2ccncc2)ccc1O`, the “-logMIC” value is reported as 2.06.
In the case of `COc1cccc(OC)c1/C=N/NC(=O)c1ccncc1`, the “-logMIC” value is reported as 2.06.

System: Vaccinia virus
Experiment: Antiviral activity against Vaccinia virus infected human HEL cells assessed as inhibition of virus-induced cytopathicity
Assay type: functional, organism-based
Conditions: Orthopoxvirus vaccinia
For `CCOc1cc(/C=N/NC(=O)c2ccncc2)ccc1O`, the EC50 was > 100 µg/mL.
For `COc1cccc(OC)c1/C=N/NC(=O)c1ccncc1`, the EC50 was > 100 µg/mL.

System: Mammalian orthoreovirus 1
Experiment: Antiviral activity against Mammalian orthoreovirus 1 infected Vero cells assessed as inhibition of virus-induced cytopathicity
Assay type: functional, organism-based
Conditions: Mammalian orthoreovirus 1, Vero
With `CCOc1cc(/C=N/NC(=O)c2ccncc2)ccc1O` the EC50 was > 100 µg/mL.
With `COc1cccc(OC)c1/C=N/NC(=O)c1ccncc1` the EC50 was > 20 µg/mL.

System: Respiratory syncytial virus
Experiment: Antiviral activity against Respiratory syncytial virus infected human HeLa cells assessed as inhibition of virus-induced cytopathicity
Assay type: functional, organism-based
Conditions: not given
In the case of `CCOc1cc(/C=N/NC(=O)c2ccncc2)ccc1O`, the EC50 is reported as > 100 µg/mL.
In the case of `COc1cccc(OC)c1/C=N/NC(=O)c1ccncc1`, the EC50 is reported as > 20 µg/mL.

System: Human alphaherpesvirus 1
Experiment: Antiviral activity against Human herpesvirus 1 strain KOS infected in human HEL cells assessed as inhibition of virus-induced cytopathicity
Assay type: functional, organism-based
Conditions: Human alphaherpesvirus 1, KOS
In the case of `CCOc1cc(/C=N/NC(=O)c2ccncc2)ccc1O`, the EC50 is reported as > 100 µg/mL.
In the case of `COc1cccc(OC)c1/C=N/NC(=O)c1ccncc1`, the EC50 is reported as > 100 µg/mL.
